Laboratory results: ChEMBL document CHEMBL1629626, “Ultrastructural effects of oritavancin on methicillin-resistant Staphylococcus aureus and vancomycin-resistant Enterococcus” (2009)
Activity calls are given as the source filed them. The rule behind the calls is not given here.

Experiments:
[1] = system: Enterococcus faecalis; assay: Antimicrobial activity against Enterococcus faecalis clinical isolate A5241515 assessed as growth inhibition at 0.12 ug/ml upto 3 hrs; format: functional, organism-based
[2] = system: Staphylococcus aureus; assay: Antimicrobial activity against methicillin-resistant Staphylococcus aureus ATCC 43300 assessed as reduction in cell counts at 1 ug/ml after 10 mins; format: functional
[3] = system: Enterococcus faecalis; assay: Antimicrobial activity against Enterococcus faecalis clinical isolate A5241515 assessed as growth inhibition at 1 ug/ml upto 6 hrs; format: functional, organism-based
[4] = system: Enterococcus faecalis; assay: Antimicrobial activity against Enterococcus faecalis clinical isolate A5241515 assessed as formation of large membrane inclusions at 1 ug/ml after 6 hrs by transmission electron microscopy; format: functional, organism-based
[5] = system: Enterococcus faecalis; assay: Antimicrobial activity against Enterococcus faecalis clinical isolate A5241515 assessed as cell ghost formation at 0.12 ug/ml after 3 hrs by transmission electron microscopy; format: functional, organism-based
[6] = system: Staphylococcus aureus; assay: Antimicrobial activity against methicillin-resistant Staphylococcus aureus ATCC 43300 assessed as septal deformation at 1 ug/ml after 10 mins by transmission electron microscopy; format: functional, organism-based
[7] = system: Staphylococcus aureus; assay: Antimicrobial activity against methicillin-resistant Staphylococcus aureus ATCC 43300 assessed as aberrant septum formation at 1 ug/ml after 10 mins by transmission electron microscopy; format: functional, organism-based
[8] = system: Staphylococcus aureus; assay: Antimicrobial activity against methicillin-resistant Staphylococcus aureus ATCC 43300 assessed as cell wall thickening at 1 ug/ml after 10 mins by transmission electron microscopy; format: functional, organism-based
[9] = system: Enterococcus faecalis; assay: Antimicrobial activity against Enterococcus faecalis clinical isolate A5241515 assessed as septal deformation at 0.12 ug/ml after 3 hrs by transmission electron microscopy; format: functional, organism-based
[10] = system: Enterococcus faecalis; assay: Antimicrobial activity against Enterococcus faecalis clinical isolate A5241515 assessed as formation of extensive fibrils around the cell at 0.12 ug/ml after 3 hrs by transmission electron microscopy; format: functional, organism-based
[11] = system: Staphylococcus aureus; assay: Antimicrobial activity against methicillin-resistant Staphylococcus aureus ATCC 43300 assessed as formation of membrane inclusions at 1 ug/ml after 10 mins by transmission electron microscopy; format: functional, organism-based
[12] = system: Staphylococcus aureus; assay: Antimicrobial activity against methicillin-resistant Staphylococcus aureus ATCC 43300 assessed as loss of septal midline at 1 ug/ml after 10 mins by transmission electron microscopy; format: functional, organism-based
[13] = system: Staphylococcus aureus; assay: Antimicrobial activity against methicillin-resistant Staphylococcus aureus ATCC 43300 assessed as aberrant septum formation at 16 ug/ml after 3 hrs by transmission electron microscopy; format: functional, organism-based
[14] = system: Staphylococcus aureus; assay: Antimicrobial activity against methicillin-resistant Staphylococcus aureus ATCC 43300 assessed as septal deformation at 16 ug/ml after 3 hrs by transmission electron microscopy; format: functional, organism-based
[15] = system: Staphylococcus aureus; assay: Antimicrobial activity against methicillin-resistant Staphylococcus aureus ATCC 43300 assessed as loss of septal midline at 16 ug/ml after 3 hrs by transmission electron microscopy; format: functional, organism-based
[16] = system: Staphylococcus aureus; assay: Antimicrobial activity against methicillin-resistant Staphylococcus aureus ATCC 43300 assessed as reduction in cell counts at 16 ug/ml after 3 hrs; format: functional
[17] = system: Staphylococcus aureus; assay: Antimicrobial activity against methicillin-resistant Staphylococcus aureus ATCC 43300 assessed as formation of closing iris septal growth pattern at 16 ug/ml after 3 hrs by transmission electron microscopy; format: functional, organism-based
[18] = system: Staphylococcus aureus; assay: Antimicrobial activity against methicillin-resistant Staphylococcus aureus ATCC 43300 assessed as cell wall thickening at 16 ug/ml after 3 hrs by transmission electron microscopy; format: functional, organism-based

With `CN[C@H](CC(C)C)C(=O)N[C@H]1C(=O)N[C@@H](CC(N)=O)C(=O)N[C@H]2C(=O)N[C@H]3C(=O)N[C@H](C(=O)N[C@H](C(=O)O)c4cc(O)cc(O)c4-c4cc3ccc4O)[C@H](O[C@H]3C[C@](C)(N)[C@@H](O)[C@H](C)O3)c3ccc(c(Cl)c3)Oc3cc2cc(c3O[C@@H]2O[C@H](CO)[C@@H](O)[C@H](O)[C@H]2O[C@H]2C[C@](C)(NCc3ccc(-c4ccc(Cl)cc4)cc3)[C@@H](O)[C@H](C)O2)Oc2ccc(cc2Cl)[C@H]1O` [ORITAVANCIN] the Activity [1] was “Active”, the “fold change (FC)” value [2] was 0.35 and the Activity [3] was “Active”. The Activity [4] was “Active”, the Activity [5] was “Active” and the Activity [6] was “Active”. The Activity [7] was “Active”, the Activity [8] was “Active” and the Activity [9] was “Active”. For the same molecule, the Activity [10] was “Active”, the Activity [11] was “Active” and the Activity [12] was “Active”.

For `CN[C@H](CC(C)C)C(=O)N[C@H]1C(=O)N[C@@H](CC(N)=O)C(=O)N[C@H]2C(=O)N[C@H]3C(=O)N[C@H](C(=O)N[C@H](C(=O)O)c4cc(O)cc(O)c4-c4cc3ccc4O)[C@H](O)c3ccc(c(Cl)c3)Oc3cc2cc(c3O[C@@H]2O[C@H](CO)[C@@H](O)[C@H](O)[C@H]2O[C@H]2C[C@](C)(N)[C@H](O)[C@H](C)O2)Oc2ccc(cc2Cl)[C@H]1O` [VANCOMYCIN], the Activity [13] was “inactive”, the Activity [14] was “inactive” and the Activity [15] was “inactive”. For the same molecule, the “fold change (FC)” value [16] was 0.26, the Activity [17] was “Active” and the Activity [18] was “Active”.
